Assay results taken from US20260183306A1, “Methods for Treating Respiratory Diseases Characterized by Mucus Hypersecretion” (The Board of Trustees of the Leland Stanford Junior …, priority 2022, published 2026).
“Also recorded” adds a separate entry of the source.

Assays:
[1] = system: airway epithelia in mice; test: MCC number in airway epithelium of Foxj1-GFP mice after intraperitoneal GSI; type: in vivo, mouse
Description: 10-40 week age-matched male and female Foxj1-GFP mice were given semagacestat or vehicle by intraperitoneal (IP) administration. In the first experiment, semagacestat was administered at 0.1 mg/kg and 1 mg/kg twice daily for three days and compared to vehicle alone. Mice were sacrificed on day 7. […] In approximately similar sized, PFA-fixed airways, nuclei (red; DAPI) were scored either as MCCs (green; GFP) or non-ciliated cells (absence of GFP). Acetylated tubulin (blue) marks cilia. Samples were blinded for treatment group prior to scoring.
In the second experiment, vehicle and semagacestat were administered once daily for 5 consecutive days per week for three weeks, with a semagacestat dose of 1 mg/kg. An important observed toxicity in multiple GSI clinical trials, including large Alzheimer's Disease trials, was gastrointestinal toxicity. As a surrogate measure of GI toxicity, we monitored body weight throughout the experiment. Body weight was measured on Days 1, 9, 24 and 30, and mice were sacrificed on day 31.
The impact of LY450139 in mouse models of neurodegeneration has been studied extensively (27,28). In these models, LY450139 were administered systemically for weeks to months at a time at up to 100 mg/kg. It was sought to determine if a substantially lower dose administered for a shorter duration would be sufficient to induce an increase in the proportion of multiciliated cells in the intact airway epithelium of healthy adult mice. Mice were first treated with 1 or 0.1 mg/kg of LY450139, 10 mg/kg DAPT or vehicle control twice daily for three consecutive days via intraperitoneal injection and then assessed on day 7 (FIG. 42A). To quantitate multiciliated cells, treatments were carried out in Foxj1/EGFP transgenic mice that expresses cytoplasmic GFP under the multiciliated cell specific Foxj1 promoter (32). Multiciliated cell number was quantitated in airways of similar size in lung tissue sections. Cells were identified by DAPI nuclear staining and were counted as multiciliated if the DAPI staining overlapped with GFP signal (FIG. 42B).
Mouse husbandry and GSI treatment in mice. Foxj1/EGFP mice have been previously described (32,44). 10-40 week age-matched male and female Foxj1/EGFP mice were treated with LY450139 or vehicle control by intraperitoneal (IF) administration. In the first experiment, 0.1 mg/kg, or 1 mg/kg LY450139, 10 mg/kg DAPT or saline vehicle was administered twice daily for three consecutive days, then the mice were sacrificed on day 7. In the second experiment, 1 mg/kg LY450139 or saline vehicle was administered once daily for five consecutive days per week for three weeks, then the mice were sacrificed on day 30. Body weight was monitored as a surrogate measure of GI toxicity. For both studies, the lungs were cryoembedded en bloc in OCT compound (Thermo Fisher). Cryosections were formalin fixed, then labeled with anti-GFP and acetylated α-Tubulin antibodies and stained with DAPI to mark nuclei. Images were acquired using a Leica SP8 confocal microscope and analyzed by three independent blinded investigators. In airways of approximately uniform size viewed in cross section, cells were first identified by DAPI signal, and then scored either as multiciliated cells (GFP positive) or nonciliated cells (GFP negative). Ac. α-Tubulin signal was used as an additional identifying feature for multiciliated cells. All procedures involving animals were approved by the Institutional Animal Care and Use Committee of Stanford University School of Medicine in accordance with established guidelines for animal care.

[2] = system: HNEC cultures treated with IL-13; test: IL-13 induced chronic inflammation / mucous metaplasia model in ALI HNEC cultures; type: cell-based, human; conditions: for percentage of MCCs after IL-13 remodeling / percentage of mucin positive secretory (mucous) cells after IL-13 remodeling: IL-13 ALI+7 to 14, then DAFT (1 um) or semagacestat (125 nm) ALI+14 to 21; for percentage of MCCs in controls without IL-13: no IL-13, DAFT (1 um) or semagacestat (125 nm) days 14-21
Description: Administration of IL-13 to ALI cultures induces goblet cell hyperplasia and is a useful model of chronic inflammation. ALI HNEC cultures were prepared as described in Vladar et al. ALI cultures were treated with and without administration of I1-13 on days 7−14. DAFT (1 um), semagacestat (125 nm) or vehicle control were administered on days 14-21. PFA-fixed cultures were stained for Muc5AC (red; mucin producing secretory cells), Acetylated tubulin (green; MCCs) and E-Cadherin (blue to reveal cell boundaries).
HNEC cultures from a CF patient were treated with IL-13 from ALI+7 to 14 to induce inflammation. […] IL-13 treatment increases the percentage of mucin positive secretory cells and decreases the percentage of MCCs.
To test whether GSI treatment has the ability to restore multiciliated cells in remodeled epithelia with fewer than normal multiciliated cells, healthy donor HNECs were treated with the IL-13 pro-inflammatory cytokine to model mucous metaplasia (7,24). IL-13 treatment from ALI+7 to 14d of culture led to the formation of excess mucus secretory cells, identified by MUCSAC labeling, at the expense of multiciliated cells (FIG. 38A). At ALI+14d, the cytokine was withdrawn, and cultures were treated for one week with LY450139, DAPT or DMSO control.
Primary human nasal epithelial cell (HNEC) cultures. […] Primary air-liquid interface (ALI) culture of nasal epithelial cells from passage 0 (P0) or P1 basal stem cells was carried out as previously described (24,30). Briefly, cells are removed from cytobrushes with gentle enzymatic digestion. P0 HNEC cultures are initiated by seeding freshly isolated cells onto Collagen I coated Transwell filters. P1 HNEC cultures are initiated from basal cells that were first expanded on Collagen I coated plastic dishes in proliferation medium supplemented with Y-27632 (ROCK inhibitor, 10 μM), DMH-1 (BMP inhibitor, 1 μM), A-83-01, (TGF-β inhibitor, 1 μM), and CHIR99021 (WNT agonist, 1 μM)(42), all from Selleckchem. HNECs seeded onto Transwells are initially cultured submerged in proliferation medium until confluency, then lifted to ALI (considered as ALI+0d of culture) by supplying differentiation medium only from the bottom compartment. HNECs are considered mature at ALI+21d of culture. Healthy and CF HNECs used in the study were cultured in homemade media (24). CF HNECs used for the Ussing chamber measurements only were cultured in Pneumacult Ex+(proliferation) and Pneumacult ALI (differentiation) media (Stemcell). […] Healthy HNECs were treated with 10 ng/ml recombinant human IL-13 (RnD Systems).

Structure (SMILES): C[C@H](NC(=O)Cc1cc(F)cc(F)c1)C(=O)NC(C(=O)OC(C)(C)C)c1ccccc1 (stereo partly drawn) [DAPT]
- number of multiciliated cells in airways ([1]; 10 mg/kg DAPT IP twice daily for three days, assessed day 7): modest, but statistically significant increase in the number of multiciliated cells
- percentage of MCCs after IL-13 remodeling [2]: significantly increased their proportion of multiciliated cell numbers; also recorded: increasing the percentage of MCCs
- percentage of mucin positive secretory (mucous) cells after IL-13 remodeling [2]: reduction in the proportion of mucous cells; also recorded: decreasing the percentage of mucin positive secretory cells
- percentage of MCCs after IL-13 remodeling ([2]; listed as DAFT): increasing the percentage of MCCs; also recorded: induced multiciliated cell formation to levels comparable to healthy epithelia
- percentage of mucin positive secretory (mucous) cells after IL-13 remodeling ([2]; listed as DAFT): decreasing the percentage of mucin positive secretory cells
- percentage of MCCs in controls without IL-13 [2]: increase the percentage of MCCs in controls
- percentage of MCCs in controls without IL-13 ([2]; listed as DAFT): increase the percentage off MCCs in controls

Structure (SMILES): CC(C)[C@H](O)C(=O)N[C@@H](C)C(=O)N[C@@H]1C(=O)N(C)CCc2ccccc21 [semagacestat, (2S)-2-hydroxy-3-methyl-N-[(1 S)-1-methyl-2-oxo-2-[[(1 S)-2,3,4,5-tetrahydro-3-methyl-2-oxo-1H-3-benzazepin-1-yl]amino]ethyl]-butamide]
- ratio of ciliated to non-ciliated cells / multiciliated cell number in airways ([1]; 0.1 mg/kg IP twice daily for three days, assessed day 7): increase in the ratio of ciliated to non-ciliated cells
- ratio of ciliated to non-ciliated cells / multiciliated cell number in airways ([1]; 0.1 mg/kg IP twice daily for three days, assessed day 7, listed as LY450139): trend towards more multiciliated cells that did not reach statistical significance
- ratio of ciliated to non-ciliated cells / multiciliated cell number in airways ([1]; 1 mg/kg IP once daily, 5 consecutive days per week for three weeks, assessed day 30/31): significant increase in the ratio of ciliated to non-ciliated cells
- ratio of ciliated to non-ciliated cells / multiciliated cell number in airways ([1]; 1 mg/kg IP once daily, 5 consecutive days per week for three weeks, assessed day 30/31, listed as LY450139): induced an increase in the proportion of multiciliated cells; also recorded: efficacious; also recorded: increased multiciliated cell number
- ratio of ciliated to non-ciliated cells / multiciliated cell number in airways ([1]; 1 mg/kg IP twice daily for three days, assessed day 7): increase in the ratio of ciliated to non-ciliated cells
- ratio of ciliated to non-ciliated cells / multiciliated cell number in airways ([1]; 1 mg/kg IP twice daily for three days, assessed day 7, listed as LY450139): modest, but statistically significant increase in the number of multiciliated cells; also recorded: sufficient to increase multiciliated cell numbers; also recorded: increased multiciliated cell number
- percentage of MCCs after IL-13 remodeling [2]: increasing the percentage of MCCs
- percentage of mucin positive secretory (mucous) cells after IL-13 remodeling [2]: decreasing the percentage of mucin positive secretory cells
- percentage of MCCs after IL-13 remodeling ([2]; listed as LY450139): significantly increased their proportion of multiciliated cell numbers; also recorded: induced multiciliated cell formation to levels comparable to healthy epithelia
- percentage of mucin positive secretory (mucous) cells after IL-13 remodeling ([2]; listed as LY450139): reduction in the proportion of mucous cells
- percentage of MCCs in controls without IL-13 [2]: increase the percentage off MCCs in controls; also recorded: increase the percentage of MCCs in controls
